Laboratory results: patent publication US20260242391A1 (priority 2023, published 2026)
pEC50, pIC50: −log10 of the molar value.

Assays:
in vitro [1] = details: human
HL-60 [2] = assay: HL-60 differentiation potency; assay type: cell-based; details: Homo sapiens
HL-60 [3] = assay: HL-60 differentiation potency; assay type: cell-based; details: Homo sapiens; remark: listed apart in the source
in vitro [4] = details: human; remark: listed apart in the source

SMILES | pIC50 (in vitro [1]) | pEC50 (HL-60 [2]) | pIC50 (in vitro [1]; HL-60 cells) | pEC50 (HL-60 [3]) | pIC50 (in vitro [4])
C[C@H]1[C@@H](OCc2ccc(C(=O)NC(C)(C)C(=O)O)cc2)O[C@@H]2O[C@@]3(C)CC[C@H]4[C@H](C)CC[C@@H]1[C@@]24OO3 [Compound 284, 2-methyl-2-(4-((((3R,5aS,6R,8aS, 9R,10S,12R, 12aR)-3,6,9-trimethyldeca-hydro-12H-3,12-epoxy[1,2]dioxepino[4,3-i]isochromen-10-yl)oxy)methyl)benzamido) propanoic acid] | < 4.70 | 6.28 |  |  | 
CO[C@]1(CO[C@H]2O[C@@H]3O[C@@]4(C)CC[C@H]5[C@H](C)CC[C@@H]([C@H]2C)[C@@]35OO4)CC[C@H](C(=O)O)CC1 [Compound 193, (1R,4s)-4-methoxy-4-((((3R,5aS,6R,8aS, 9R,10S,12R, 12aR)-3,6,9-trimethyldeca-hydro-12H-3,12-epoxy[1,2]dioxepino[4,3-i]isochromen-10-yl)oxy)methyl) cyclohexane-1-carboxylic acid] | < 4.70 | 5.15 |  |  | 
C[C@H]1[C@@H](Oc2ccc(COCC(=O)O)cc2)O[C@@H]2O[C@@]3(C)CC[C@H]4[C@H](C)CC[C@@H]1[C@@]24OO3 [Compound 219, 2-((4-(((3R,5aS,6R,8aS, 9R,10S,12R, 12aR)-3,6,9-trimethyldeca-hydro-12H-3,12-epoxy[1,2]dioxepino[4,3-i]isochromen-10-yl)oxy)benzyl)oxy)acetic acid] | 4.88 | 7.21 |  |  | 
C[C@H]1[C@@H](O[C@H]2CC[C@@H](C(=O)N[C@H](C(=O)O)C3CCC3)CC2)O[C@@H]2O[C@@]3(C)CC[C@H]4[C@H](C)CC[C@@H]1[C@@]24OO3 [Compound 252, (S)-2-cyclobutyl-2-((1R,4R)-4-(((3R,5aS,6R,8aS, 9R,10S,12R, 12aR)-3,6,9-trimethyldeca-hydro-12H-3,12-epoxy[1,2]dioxepino[4,3-i]isochromen-10-yl)oxy)cyclohexane-1-carboxamido) acetic acid] | < 4.70 | 6.62 |  |  | 
C[C@H]1[C@@H](Oc2ccc(CC(=O)N[C@@H]3C[C@H](C(=O)O)C[C@H]3O)cc2)O[C@@H]2O[C@@]3(C)CC[C@H]4[C@H](C)CC[C@@H]1[C@@]24OO3 [Compound 299, (1S,3R,4R)-3-hydroxy-4-(2-(4-(((3R,5aS,6R,8aS, 9R,10S,12R, 12aR)-3,6,9-trimethyldeca-hydro-12H-3,12-epoxy[1,2]dioxepino[4,3-i]isochromen-10-yl)oxy)phenyl)acetamido) cyclopentane-1-carboxylic acid] | 5.30 | 6.97 |  |  | 
C[C@H]1[C@@H](OCc2ccc(OCC(=O)O)cc2)O[C@@H]2OC3(C)CC[C@H]4[C@H](C)CC[C@@H]1[C@@]24OO3 (stereo in doubt) [Compound 274, 2-(4-((((3R,5aS,6R,8aS, 9R,10S,12R, 12aR)-3,6,9-trimethyldeca-hydro-12H-3,12-epoxy[1,2]dioxepino[4,3-i]isochromen-10-yl)oxy)methyl)phenoxy)acetic acid] | < 4.70 | 6.07 |  |  | 
C[C@H]1[C@@H](OC[C@@]2(F)CCC(C(=O)O)C2)O[C@@H]2O[C@@]3(C)CC[C@H]4[C@H](C)CC[C@@H]1[C@@]24OO3 (stereo partly drawn) [Compound 210, (3R)-3-fluoro-3-((((3R,5aS,6R,8aS, 9R,10S,12R, 12aR)-3,6,9-trimethyldeca-hydro-12H-3,12-epoxy[1,2]dioxepino[4,3-i]isochromen-10-yl)oxy)methyl) cyclopentane-1-carboxylic acid] | 5.12 | 5.60 |  |  | 
C[C@H]1[C@@H](O[C@H]2CC[C@@H](C(=O)N[C@H]3C[C@@H](C(=O)O)C3)CC2)O[C@@H]2O[C@@]3(C)CC[C@H]4[C@H](C)CC[C@@H]1[C@@]24OO3 [Compound 228, (1S,3s)-3-((1R,4S)-4-(((3R,5aS,6R,8aS, 9R,10S,12R, 12aR)-3,6,9-trimethyldeca-hydro-12H-3,12-epoxy[1,2]dioxepino[4,3-i]isochromen-10-yl)oxy)cyclo-hexane-1-carboxamido) cyclobutane-1-carboxylic acid] | < 4.70 | 5.04 |  |  | 
C[C@H]1[C@@H](Oc2ccc(C(=O)N3[C@H](C(=O)O)C[C@@H]4C[C@@H]43)cc2)O[C@@H]2O[C@@]3(C)CC[C@H]4[C@H](C)CC[C@@H]1[C@@]24OO3 [Compound 258, (1S,3S,5S)-2-(4-(((3R,5aS,6R,8aS, 9R,10S,12R, 12aR)-3,6,9-trimethyldeca-hydro-12H-3,12-epoxy[1,2]dioxepino[4,3-i]isochromen-10-yl)oxy)benzoyl)-2-azabicyclo [3.1.0]hexane-3-carboxylic acid] | < 4.70 | < 4.70 |  |  | 
C[C@H]1[C@@H](Oc2ccc(CC(=O)N[C@@H]3CC[C@H](C(=O)O)C3)cc2)O[C@@H]2O[C@@]3(C)CC[C@H]4[C@H](C)CC[C@@H]1[C@@]24OO3 [Compound 289, (1S,3R)-3-(2-(4-(((3R,5aS,6R,8aS, 9R,10S,12R, 12aR)-3,6,9-trimethyldeca-hydro-12H-3,12-epoxy[1,2]dioxepino[4,3-i]isochromen-10-yl)oxy)phenyl)acetamido) cyclopentane-1-carboxylic acid] | < 4.70 | 7.56 |  |  | 
C[C@H]1[C@@H](O[C@H]2CC[C@@H](C(=O)N3CC(C(=O)O)C3)CC2)O[C@@H]2O[C@@]3(C)CC[C@H]4[C@H](C)CC[C@@H]1[C@@]24OO3 [Compound 259, 1-((1R,4s)-4-(((3R,5aS,6R,8aS, 9R,10S,12R, 12aR)-3,6,9-trimethyldeca-hydro-12H-3,12-epoxy[1,2]dioxepino[4,3-i]isochromen-10-yl)oxy)cyclo-hexane-1-carbonyl) azetidine-3-carboxylic acid] |  | 6.76 | 4.97 |  | 
C[C@H]1[C@@H](OC(C)(C)[C@H]2C[C@@H](C(=O)O)C2)O[C@@H]2O[C@@]3(C)CC[C@H]4[C@H](C)CC[C@@H]1[C@@]24OO3 [Compound 206, (1R,3s)-3-(2-(((3R,5aS,6R,8aS, 9R,10S,12R, 12aR)-3,6,9-trimethyldeca-hydro-12H-3,12-epoxy[1,2]dioxepino[4,3-i]isochromen-10-yl)oxy)propan-2-yl)cyclobutane-1-carboxylic acid] | < 4.70 | 5.42 |  |  | 
C[C@H]1[C@@H](O[C@H]2CC[C@@H](C(=O)N[C@H]3CC[C@@H](C(=O)O)C3)CC2)O[C@@H]2O[C@@]3(C)CC[C@H]4[C@H](C)CC[C@@H]1[C@@]24OO3 [Compound 202, (1R,3S)-3-((1R,4R)-4-(((3R,5aS,6R,8aS, 9R,10S,12R, 12aR)-3,6,9-trimethyldeca-hydro-12H-3,12-epoxy[1,2]dioxepino[4,3-i]isochromen-10-yl)oxy)cyclo-hexane-1-carboxamido) cyclopentane-carboxylic acid] |  | 5.40 |  |  | 
C[C@H]1[C@@H](Oc2ccc(C(F)(F)C(=O)O)cc2)O[C@@H]2O[C@@]3(C)CC[C@H]4[C@H](C)CC[C@@H]1[C@@]24OO3 [Compound 171, 2,2-difluoro-2-(4-(((3R,5aS,6R,8aS, 9R,10S,12R, 12aR)-3,6,9-trimethyldeca-hydro-12H-3,12-epoxy[1,2]dioxepino[4,3-i]isochromen-10-yl)oxy)phenyl) acetic acid] |  |  |  | 5.15 | < 4.70
C[C@H]1[C@@H](Oc2ccc(C(=O)N[C@H]3C[C@@H](C(=O)O)C3)cc2)O[C@@H]2O[C@@]3(C)CC[C@H]4[C@H](C)CC[C@@H]1[C@@]24OO3 [Compound 233, (1R,3s)-3-(4-(((3R,5aS,6R,8aS, 9R,10S,12R, 12aR)-3,6,9-trimethyldeca-hydro-12H-3,12-epoxy[1,2]dioxepino[4,3-i]isochromen-10-yl)oxy)benzamido) cyclobutane-1-carboxylic acid] |  | 7.03 |  |  | 
C[C@H]1[C@H](N2CCC(C(=O)NC3COC3)CC2)O[C@@H]2O[C@@]3(C)CC[C@H]4[C@H](C)CC[C@@H]1[C@@]24OO3 [Compound 60, N-(oxetan-3-yl)-1-((3R,5aS, 6R,8aS,9R,10R, 12R,12aR)-3,6,9-trimethyldeca-hydro-12H-3,12-epoxy[1,2]dioxepino[4,3-i]isochromen-10-yl)piperidine-4-carboxamide] |  |  |  | 4.95 | 4.93
C[C@H]1[C@@H](Oc2ccc(C(=O)N[C@H]3CC[C@@H](C(=O)O)C3)cc2)O[C@@H]2O[C@@]3(C)CC[C@H]4[C@H](C)CC[C@@H]1[C@@]24OO3 [Compound 134, (1R,3S)-3-(4-(((3R,5aS,6R,8aS, 9R,10S,12R, 12aR)-3,6,9-trimethyldeca-hydro-12H-3,12-epoxy[1,2]dioxepino[4,3-i]isochromen-10-yl)oxy)benzamido)cyclo-pentane-1-carboxylic acid] |  |  |  | 7.61 | 5.10
C[C@H]1[C@H](N[C@@H](C)c2ccc(S(C)(=O)=O)cc2)O[C@@H]2O[C@@]3(C)CC[C@H]4[C@H](C)CC[C@@H]1[C@@]24OO3 [Compound 57, (3R,5aS,6R,8aS, 9R,10R,12R, 12aR)-3,6,9-trimethyl-N-((S)-1-(4-(methyl-sulfonyl)phenyl)ethyl)decahydro-12H-3,12-epoxy[1,2] dioxepino[4,3-i] isochromen-10-amine] |  |  |  | 5.07 | 5.00
C[C@H]1[C@@H](Oc2ccc(-c3nn[nH]n3)cc2)O[C@@H]2O[C@@]3(C)CC[C@H]4[C@H](C)CC[C@@H]1[C@@]24OO3 [Compound 73, 5-(4-(((3R,5aS,6R, 8aS,9R,10S,12R, 12aR)-3,6,9-trimethyldeca-hydro-12H-3,12-epoxy[1,2]dioxepino[4,3-i]isochromen-10-yl)oxy)phenyl)-2H-tetrazole] |  |  |  | 7.46 | 7.50
COc1cc(CC(=O)O)ccc1O[C@H]1O[C@@H]2O[C@@]3(C)CC[C@H]4[C@H](C)CC[C@@H]([C@H]1C)[C@@]24OO3 [Compound 3, 2-(3-methoxy-4-(((3R,5aS,6R, 8aS,9R,10S,12R, 12aR)-3,6,9-trimethyldeca-hydro-12H-3,12-epoxy[1,2]dioxepino[4,3-i]isochromen-10-yl)oxy)phenyl) acetic acid] |  |  |  | 7.37 | < 4.70
C[C@H]1[C@@H](CCN2CCC(C(=O)O)CC2)O[C@@H]2O[C@@]3(C)CC[C@H]4[C@H](C)CC[C@@H]1[C@@]24OO3 [Compound 66, 1-(2-((3R,5aS,6R, 8aS,9R,10R,12R, 12aR)-3,6,9-trimethyldeca-hydro-12H-3,12-epoxy[1,2]dioxepino[4,3-i]isochromen-10-yl)ethyl) piperidine-4-carboxylic acid] |  |  |  | < 4.70 | < 4.70
